Experiment: mn = molality of the nth substance listed, in mol/kg
Conditions: 100 kPa, Liquid; for speed of sound: Frequency=3 MHz, Sing-around technique in a fixed-path interferometer; for mass density: Vibrating tube method

O=S(=O)([O-])C(F)(F)F.O=S(=O)([O-])C(F)(F)F.[Mg+2] [magnesium triflate] + CC(=O)N(C)C
Conditions	mass density, 298.15 K [kg/m3]	mass density, 303.15 K [kg/m3]	mass density, 308.15 K [kg/m3]	mass density, 313.15 K [kg/m3]	mass density, 318.15 K [kg/m3]	speed of sound, 298.15 K [m/s]	speed of sound, 303.15 K [m/s]	speed of sound, 308.15 K [m/s]	speed of sound, 313.15 K [m/s]	speed of sound, 318.15 K [m/s]
m1 = 0.009142	938.272	933.667	929.056	924.433	919.8	1456.4	1436.7	1416.9	1397.2	1377.7
m1 = 0.01469	939.459	934.86	930.249	925.632	921.007	1456.7	1436.9	1417.2	1397.6	1378.1
m1 = 0.02251	941.134	936.55	931.947	927.333	922.714	1457	1437.3	1417.7	1398.1	1378.6
m1 = 0.03194	943.119	938.53	933.932	929.324	924.71	1457.4	1437.8	1418.2	1398.6	1379.2
m1 = 0.04489	945.817	941.246	936.655	932.054	927.445	1457.9	1438.3	1418.8	1399.3	1379.9
m1 = 0.05714	948.308	943.72	939.134	934.538	929.945	1458.3	1438.8	1419.3	1399.9	1380.6
m1 = 0.07138	951.266	946.705	942.126	937.537	932.941	1458.9	1439.4	1419.9	1400.6	1381.3
m1 = 0.08889	954.777	950.211	945.637	941.054	936.462	1459.5	1440.1	1420.7	1401	1382.1
m1 = 0.1071	958.463	953.905	949.338	944.772	940.1	1460	1440.7	1421.3	1401.9	1382.8
m1 = 0.1341	963.77	959.1	954.5	950	945.4	1460.7	1441.5	1422.3	1403.2	1384.2

From the NIST ThermoML archive (doi:10.1016/j.jct.2015.08.033)
